In US12473295B2, “Substituted straight chain spiro derivatives” (Janssen Pharmaceutica NV, priority 2019, dated 2025):
Where a name gives a salt, the structure may show the parent alone. Read-outs that look alike come from different tables or passages of the source.

Experiments:
OCI-AML3 cells = assay: Proliferation assay (spheroid growth, 8 days), OCI-AML3; assay type: cell-based, human; details: OCI-AML3, 8 days
Description: The anti-proliferative effect of menin/MLL protein/protein interaction inhibitor test compounds was assessed in human leukemia cell lines. The cell line MOLM14 harbors a MLL translocation and expresses the MLL fusion protein MLL-AF9, respectively, as well as the wildtype protein from the second allele. OCI-AML3 cells that carry the NPM1c gene mutation were also tested. […] KO-52 was used as a control cell line containing two MLL (KMT2A) wildtype alleles in order to exclude compounds that display general cytotoxic effects.
KO-52 and OCI-AML3 cell lines were propagated in alpha-MEM (Sigma Aldrich) supplemented with 20% heat-inactivated fetal bovine serum (HyClone), 2 mM L-glutamine (Sigma Aldrich) and 50 μg/ml gentamycin (Gibco).
In order to assess the anti-proliferative effects, 200 MOLM14 cells, 200 OCI-AML3 cells or 300 KO-52 cells were seeded in 200 μl media per well in […] round bottom, ultra-low attachment plates (Costar, catalogue number 7007). Cell seeding numbers were chosen based on growth curves to ensure linear growth throughout the experiment. Test compounds were added at different concentrations and the DMSO content was normalized to 0.3%. Cells were incubated for 8 days at 37° C. and 5% CO2. Spheroid like growth was measured in real-time by live-cell imaging (IncuCyteZOOM, Essenbio, 4× objective) acquiring images at day 8. Confluence (%) as a measure of spheroid size was determined using an integrated analysis tool.
In order to determine the effect of the test compounds over time, the confluence in each well as a measure of spheroid size, was calculated. Confluence of the highest dose of a reference compound was used as baseline for the LC (Low control) and the confluence of DMSO treated cells was used as 0% cytotoxicity (High Control, HC).
GraphPad Prism(version 7.00) was used to calculate the IC50. Dose-response equation was used for the plot of % Effect vs Log 10 compound concentration with a variable slope and fixing the maximum to 100% and the minimum to 0%.

[1] = target: menin/MLL (terbium chelate-labeled menin, FITC-MBM1 peptide) (Homo sapiens (Human), UniProt O00255); assay: Menin/MLL homogenous time-resolved fluorescence (HTRF) assay; assay type: binding;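 also: IC50 from percent inhibition of HTRF signal, normalized between wells without competitor and wells with a saturating competitor that displaces FITC-MBM1 from His-tagged menin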
MOLM14 cells = assay: Proliferation assay (spheroid growth, 8 days), MOLM14; assay type: cell-based, human; details: MOLM14, 8 days, read-out: spheroid assay_OneTime MOLM14 IC50;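 also: spheroid size read as confluence by live-cell imaging, compounds added at a range of concentrations with 0.3% DMSO, DMSO-treated wells = 0%, highest reference dose = low control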
MEIS1 mRNA = MEIS1 mRNA expression assay (Quantigene Singleplex) in MOLM14 cells; assay type: cell-based, human; details: 48 hours incubation;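 also: MEIS1 transcript levels read by probe hybridization and normalized to RPL28 mRNA, with IC50 fitted to fold changes across a rising compound concentration series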
[2] = HTRF-30 min incubation IC50, 30 min incubation
[3] = read-out: HTRF-30 min incubation IC50, 30 min incubation

Chain of menin/MLL (terbium chelate-labeled menin, FITC-MBM1 peptide) (O00255 other isoform, or with tags, fused parts or gaps): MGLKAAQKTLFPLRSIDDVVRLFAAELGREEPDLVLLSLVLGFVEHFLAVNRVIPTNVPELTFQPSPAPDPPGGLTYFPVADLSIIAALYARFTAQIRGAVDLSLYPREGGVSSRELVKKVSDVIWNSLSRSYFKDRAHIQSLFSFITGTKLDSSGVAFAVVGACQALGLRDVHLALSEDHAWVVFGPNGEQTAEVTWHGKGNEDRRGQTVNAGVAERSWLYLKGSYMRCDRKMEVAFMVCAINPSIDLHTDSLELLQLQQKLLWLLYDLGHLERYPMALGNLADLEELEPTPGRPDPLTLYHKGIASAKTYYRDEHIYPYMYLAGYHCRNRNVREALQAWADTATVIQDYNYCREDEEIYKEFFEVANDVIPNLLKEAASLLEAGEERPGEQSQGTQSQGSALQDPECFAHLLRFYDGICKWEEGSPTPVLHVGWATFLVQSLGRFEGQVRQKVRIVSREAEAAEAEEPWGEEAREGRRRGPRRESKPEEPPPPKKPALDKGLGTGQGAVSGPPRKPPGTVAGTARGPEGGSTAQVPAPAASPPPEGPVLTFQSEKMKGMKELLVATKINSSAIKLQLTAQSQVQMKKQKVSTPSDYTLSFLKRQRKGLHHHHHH

| Compound | IC50 (OCI-AML3 cells; Homo sapiens, OCI-AML-3, […]) [nM] | IC50 [1, 2] [nM] | IC50 (MOLM14 cells; Homo sapiens, MOLM-14, […]) [nM] | IC50 (MEIS1 mRNA; Homo sapiens, MOLM-14, 48 h) [nM] | IC50 (OCI-AML3 cells) [nM] | IC50 [1, 3] [nM] | IC50 (MOLM14 cells) [nM] | IC50 (MEIS1 mRNA) [nM] |
| --- | --- | --- | --- | --- | --- | --- | --- | --- |
| CC(C)[C@H](CCCN(C)C)N1CC2(CCN(c3ccnnc3Oc3ccc(F)cc3C(=O)N(C(C)C)C(C)C)C2)C1 (single isomer, unassigned) [Compound 76, (*S)-2-((4-(2-(6-(dimethylamino)-2-methylhexan-3-yl)-2,6-diazaspiro[3.4]octan-6-yl)pyridazin-3-yl)oxy)-5-fluoro-N,N-diisopropylbenzamide] | – | – | – | – | 2390 | 2.56 | 340 | – |
| CCN(C(=O)c1cc(F)ccc1Oc1nncnc1N1CCC2(C1)CN([C@@H](CCCCN)C(C)C)C2)C(C)C (single isomer, unassigned) [Compound 210, (*S)-2-((5-(2-(7-amino-2-methylheptan-3-yl)-2,6-diazaspiro[3.4]octan-6-yl)-1,2,4-triazin-6-yl)oxy)-N-ethyl-5-fluoro-N-isopropylbenzamide] | 4630 | 5.57 | > 940 | > 1000 | – | – | – | – |
| CCN(C(=O)c1cc(F)ccc1Oc1nncnc1N1CCC2(C1)CN([C@@H](CCO)C(C)C)C2)C(C)C (single isomer, unassigned) [Compound 215, (*S)—N-ethyl-5-fluoro-2-((5-(2-(1-hydroxy-4-methylpentan-3-yl)-2,6-diazaspiro[3.4]octan-6-yl)-1,2,4-triazin-6-yl)oxy)-N-isopropylbenzamide] | – | – | – | – | 9240 | 88.8 | 1490 | > 1000 |
| CCN(C(=O)c1cc(F)ccc1Oc1nncnc1N1CCC2(C1)CN([C@@H](CCN(C)C)C(C)C)C2)C(C)C (single isomer, unassigned) [Compound 225, (*S)-2-((5-(2-(1-(dimethylamino)-4-methylpentan-3-yl)-2,6-diazaspiro[3.4]octan-6-yl)-1,2,4-triazin-6-yl)oxy)-N-ethyl-5-fluoro-N-isopropylbenzamide fumarate] | 7090 | 8.31 | > 940 | > 1000 | – | – | – | – |
| CCN(C(=O)c1cc(F)ccc1Oc1nncnc1N1CCC2(C1)CN([C@H](CCN(C)CC(N)=O)C(C)C)C2)C(C)C (single isomer, unassigned) [Compound 231, (*R)-2-((5-(2-(1-amino-2-oxoethyl)(methyl)amino)-4-methylpentan-3-yl)-2,6-diazaspiro[3.4]octan-6-yl)-1,2,4-triazin-6-yl)oxy)-N-ethyl-5-fluoro-N-isopropylbenzamide] | 1800 | 1.77 | 790 | ~560 | – | – | – | – |
| CCN(C(=O)c1cc(F)ccc1Oc1nncnc1N1CCC2(C1)CN([C@@H](C[C@@H](C)CN(C)CCOC)C(C)C)C2)C(C)C (single isomer, unassigned) [Compound 241, N-ethyl-5-fluoro-N-isopropyl-2-((5-(2-((3*S,5*R)-6-((2-methoxyethyl)(methyl)amino)-2,5-dimethylhexan-3-yl)-2,6-diazaspiro[3.4]octan-6-yl)-1,2,4-triazin-6-yl)oxy)benzamide fumarate] | 1120 | 1.36 | 180 | 280 | – | – | – | – |
| CCN(C(=O)c1cc(F)ccc1Oc1nncnc1N1CCC2(C1)CN(C(C(C)C)C(C)CCN(C)CCOC)C2)C(C)C (single isomer, unassigned) [Compound 265, N-ethyl-5-fluoro-N-isopropyl-2-((5-(2-(6-((2-methoxyethyl)(methyl)amino)-2,4-dimethylhexan-3-yl)-2,6-diazaspiro[3.4]octan-6-yl)-1,2,4-triazin-6-yl)oxy)benzamide (mixture of R,S and S,R; or mixture of RR and S,S) fumarate] | 61 | 0.29 | 28 | – | – | – | – | – |
| CCN(C(=O)c1cc(F)ccc1Oc1nncnc1N1CC2(CCN(C(CCCN(C)CCOC)C(C)C)C2)C1)C(C)C (stereo not drawn) [Compound 302, N-ethyl-5-fluoro-N-isopropyl-2-((5-(6-(6-((2-methoxyethyl)(methyl)amino)-2-methylhexan-3-yl)-2,6-diazaspiro[3.4]octan-2-yl)-1,2,4-triazin-6-yl)oxy)benzamide fumarate] | 770 | 0.26 | 97 | 160 | – | – | – | – |
| N-ethyl-(2-(((3-(2-(5 ethyl(methyl)amino)-5-methoxy-2-methylhexan-3-yl-2,&6-diazaspiro[3.4]octan-6-yl)-1,2,4-triazin-6-yl)oxy)-5-fluoro-N-isopropylbenzamide [Compound 313] | – | – | – | – | – | 1.99 | – | ~260 |

Next, values leading:

| IC50 (OCI-AML3 cells; Homo sapiens, OCI-AML-3, […]) [nM] | IC50 [1, 2] [nM] | IC50 (MOLM14 cells; Homo sapiens, MOLM-14, […]) [nM] | IC50 (MEIS1 mRNA; Homo sapiens, MOLM-14, 48 h) [nM] | IC50 (OCI-AML3 cells) [nM] | IC50 [1, 3] [nM] | IC50 (MOLM14 cells) [nM] | IC50 (MEIS1 mRNA) [nM] | Compound |
| --- | --- | --- | --- | --- | --- | --- | --- | --- |
| 4980 | 12 | > 940 | > 1000 | – | – | – | – | CCN(C)C[C@H](O)C[C@@H](C(C)C)N1CC2(CCN(c3ncnnc3Oc3ccc(F)cc3C(=O)N(CC)C(C)C)C2)C1 (relative stereo) [Compound 347, N-ethyl-2-((5-(2-((3*S,5R)-6-(ethyl(methyl)amino)-5-hydroxy-2-methylhexan-3-yl)-2,6-diazaspiro[3.4]octan-6-yl)-1,2,4-triazin-6-yl)oxy)-5-fluoro-N-isopropylbenzamide formate] |
| – | 1.53 | 300 | 160 | – | – | – | – | CCN(C(=O)c1cc(F)ccc1Oc1nncnc1N1CCC2(C1)CN([C@H](C[C@H](CN(C)C)OC)C(C)C)C2)C(C)C (single isomer, unassigned) [Compound 314, 2-((5-(2-((3*R,5*R)-6-(dimethylamino)-5-methoxy-2-methylhexan-3-yl)-2,6-diazaspiro[3.4]octan-6-yl)-1,2,4-triazin-6-yl)oxy)-N-ethyl-5-fluoro-N-isopropylbenzamide fumarate] |
| – | 1.82 | 420 | ~360 | – | – | – | – | CC(C)[C@H](C[C@H](O)CN(C)C)N1CC2(CCN(c3ncnnc3Oc3ccc(F)cc3C(=O)N(C(C)C)C(C)C)C2)C1 (single isomer, unassigned) [Compound 369, 2-((5-(2-((3*S,5*S)-6-(dimethylamino)-5-hydroxy-2-methylhexan-3-yl)-2,6-diazaspiro[3.4]octan-6-yl)-1,2,4-triazin-6-yl)oxy)-5-fluoro-N,N-diisopropylbenzamide fumarate] |
| 280 | 0.2 | 56 | 140 | – | – | – | – | CCN(C(=O)c1cc(F)ccc1Oc1nnc(NC)nc1N1CCC2(C1)CN([C@H](CCCN(C)CCOC)C(C)C)C2)C(C)C [Compound 395, (R)-N-ethyl-5-fluoro-N-isopropyl-2-((5-(2-(6-((2-methoxyethyl)(methyl)amino)-2-methylhexan-3-yl)-2,6-diazaspiro[3.4]octan-6-yl)-3-(methylamino)-1,2,4-triazin-6-yl)oxy)benzamide formate] |
| 40 | – | 7 | – | – | – | – | – | COCCN(C)CCC[C@H](C(C)C)N1CC2(CCN(c3ncnnc3Oc3ccc(F)cc3C(=O)N([13CH2][13CH3])[13CH]([13CH3])[13CH3])C2)C1.O=C(O)C(=O)O [Compound 402] |
| 490 | 0.033 | 220 | 130 | – | – | – | – | CCN(C(=O)c1cc(F)ccc1Oc1nnc(Cl)nc1N1CCC2(C1)CN([C@H](CCCN)C(C)C)C2)C(C)C [Compound 406, (R)-2-((5-(2-(6-amino-2-methylhexan-3-yl)-2,6-diazaspiro[3.4]octan-6-yl)-3-chloro-1,2,4-triazin-6-yl)oxy)-N-ethyl-5-fluoro-N-isopropylbenzamide formate] |
| 1850 | 0.12 | 640 | ~440 | – | – | – | – | CCN(C(=O)c1cc(F)ccc1Oc1nnc(NC)nc1N1CCC2(C1)CN([C@H](CCCN)C(C)C)C2)C(C)C [Compound 409, (R)-2-((5-(2-(6-amino-2-methylhexan-3-yl)-2,6-diazaspiro[3.4]octan-6-yl)-3-(methylamino)-1,2,4-triazin-6-yl)oxy)-N-ethyl-5-fluoro-N-isopropylbenzamide hydrochloride] |
| 380 | 0.12 | 160 | 120 | – | – | – | – | CCN(C(=O)c1cc(F)ccc1Oc1nnc(OC)nc1N1CCC2(C1)CN([C@H](CCCN(C)C)C(C)C)C2)C(C)C [Compound 410, (R)-2-((5-(2-(6-(dimethylamino)-2-methylhexan-3-yl)-2,6-diazaspiro[3.4]octan-6-yl)-3-methoxy-1,2,4-triazin-6-yl)oxy)-N-ethyl-5-fluoro-N-isopropylbenzamide formate] |
